How the values were obtained:
SNB-19 = assay: Antiproliferative activity against human SNB-19 cells measured after 48 hrs by SRB assay; type: functional, cell-based
RXF 393 = assay: Antiproliferative activity against human RXF 393 cells measured after 48 hrs by SRB assay; type: functional, cell-based
OVCAR-5 = assay: Antiproliferative activity against human OVCAR-5 cells measured after 48 hrs by SRB assay; type: functional, cell-based
TK-10 = assay: Antiproliferative activity against human TK-10 cells measured after 48 hrs by SRB assay; type: functional, cell-based
ACHN = assay: Antiproliferative activity against human ACHN cells measured after 48 hrs by SRB assay; type: functional, cell-based
WI-38 = assay: Antiproliferative activity against human WI-38 cells measured by MTT assay; type: functional, cell-based
MOLT-4 = assay: Antiproliferative activity against human MOLT-4 cells measured after 48 hrs by SRB assay; type: functional, cell-based
HL-60(TB) = assay: Antiproliferative activity against human HL-60(TB) cells measured after 48 hrs by SRB assay; type: functional, cell-based
HT-29 = assay: Antiproliferative activity against human HT-29 cells measured after 48 hrs by SRB assay; type: functional, cell-based
SR = assay: Antiproliferative activity against human SR cells measured after 48 hrs by SRB assay; type: functional, cell-based
MDA-MB-435 = assay: Antiproliferative activity against human MDA-MB-435 cells measured after 48 hrs by SRB assay; type: functional, cell-based
SW-620 = assay: Antiproliferative activity against human SW-620 cells measured after 48 hrs by SRB assay; type: functional, cell-based
M14 = assay: Antiproliferative activity against human M14 cells measured after 48 hrs by SRB assay; type: functional, cell-based
MDA-MB-468 = assay: Antiproliferative activity against human MDA-MB-468 cells measured after 48 hrs by SRB assay; type: functional, cell-based
UO-31 = assay: Antiproliferative activity against human UO-31 cells measured after 48 hrs by SRB assay; type: functional, cell-based
SK-OV-3 = assay: Antiproliferative activity against human SK-OV-3 cells measured after 48 hrs by SRB assay; type: functional, cell-based
SN12C = assay: Antiproliferative activity against human SN12C cells measured after 48 hrs by SRB assay; type: functional, cell-based
SK-MEL-2 = assay: Antiproliferative activity against human SK-MEL-2 cells measured after 48 hrs by SRB assay; type: functional, cell-based
COLO 205 = assay: Antiproliferative activity against human COLO 205 cells measured after 48 hrs by SRB assay; type: functional, cell-based
CCRF-CEM = assay: Antiproliferative activity against human CCRF-CEM cells measured after 48 hrs by SRB assay; type: functional, cell-based
[1] = biological target: Mitogen-activated protein kinase 10 (Homo sapiens, UniProt P53779); assay: Inhibition of JNK3 (unknown origin)
Mitogen-activated protein kinase 10, sequence (P53779 whole entry): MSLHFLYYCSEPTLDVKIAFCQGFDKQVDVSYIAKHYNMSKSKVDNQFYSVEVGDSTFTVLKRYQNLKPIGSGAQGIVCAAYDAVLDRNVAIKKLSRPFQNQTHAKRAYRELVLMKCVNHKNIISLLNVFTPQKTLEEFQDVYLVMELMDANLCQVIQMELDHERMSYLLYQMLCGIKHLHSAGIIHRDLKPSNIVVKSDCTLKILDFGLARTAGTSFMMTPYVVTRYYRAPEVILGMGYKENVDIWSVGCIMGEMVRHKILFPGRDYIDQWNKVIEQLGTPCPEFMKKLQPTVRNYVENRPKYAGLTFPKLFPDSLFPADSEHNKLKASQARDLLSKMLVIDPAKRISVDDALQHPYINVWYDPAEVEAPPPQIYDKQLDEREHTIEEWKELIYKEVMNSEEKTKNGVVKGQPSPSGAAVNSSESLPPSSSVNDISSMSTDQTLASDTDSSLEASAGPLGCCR

NCI-H23 = assay: Antiproliferative activity against human NCI-H23 cells measured after 48 hrs by SRB assay; type: functional, cell-based
RPMI-8226 = assay: Antiproliferative activity against human RPMI-8226 cells measured after 48 hrs by SRB assay; type: functional, cell-based
PC-3 = assay: Antiproliferative activity against human PC-3 cells measured after 48 hrs by SRB assay; type: functional, cell-based
OVCAR-4 = assay: Antiproliferative activity against human OVCAR-4 cells measured after 48 hrs by SRB assay; type: functional, cell-based
MCF7 = assay: Antiproliferative activity against human MCF7 cells measured after 48 hrs by SRB assay; type: functional, cell-based
NCI-H522 = assay: Antiproliferative activity against human NCI-H522 cells measured after 48 hrs by SRB assay; type: functional, cell-based
CAKI-1 = assay: Antiproliferative activity against human CAKI-1 cells measured after 48 hrs by SRB assay; type: functional, cell-based
HCT-116 = assay: Antiproliferative activity against human HCT-116 cells measured after 48 hrs by SRB assay; type: functional, cell-based
OVCAR-3 = assay: Antiproliferative activity against human OVCAR-3 cells measured after 48 hrs by SRB assay; type: functional, cell-based
SK-MEL-5 = assay: Antiproliferative activity against human SK-MEL-5 cells measured after 48 hrs by SRB assay; type: functional, cell-based
Hs-578T = assay: Antiproliferative activity against human Hs-578T cells measured after 48 hrs by SRB assay; type: functional, cell-based
HCC 2998 = assay: Antiproliferative activity against human HCC 2998 cells measured after 48 hrs by SRB assay; type: functional, cell-based
MDA-MB-231 = assay: Antiproliferative activity against human MDA-MB-231 cells measured after 48 hrs by SRB assay; type: functional, cell-based
Malme-3M = assay: Antiproliferative activity against human Malme-3M cells measured after 48 hrs by SRB assay; type: functional, cell-based
DU-145 = assay: Antiproliferative activity against human DU-145 cells measured after 48 hrs by SRB assay; type: functional, cell-based
OVCAR-8 = assay: Antiproliferative activity against human OVCAR-8 cells measured after 48 hrs by SRB assay; type: functional, cell-based
A549 = assay: Antiproliferative activity against human A549 cells measured after 48 hrs by SRB assay; type: functional, cell-based
HCT-15 = assay: Antiproliferative activity against human HCT-15 cells measured after 48 hrs by SRB assay; type: functional, cell-based

O=C(Nc1ccc(Cl)c(C(F)(F)F)c1)N1CCN(c2cc(-c3cn(-c4ccccc4)nc3-c3cccc(O)c3)ccn2)CC1
IC50 (SNB-19; SNB-19, 48 h): 4.06 µM | TGI (SNB-19; SNB-19, time 48 hrs): > 22 µM | IC50 (RXF 393; RXF 393, 48 h): 2.42 µM | TGI (RXF 393; RXF 393, time 48 hrs): 9.79 µM | IC50 (OVCAR-5; OVCAR-5, 48 h): 4.13 µM | TGI (OVCAR-5; OVCAR-5, time 48 hrs): 10.5 µM | IC50 (TK-10; TK-10, 48 h): 5.92 µM | TGI (TK-10; TK-10, time 48 hrs): > 22 µM | IC50 (ACHN; 48 h): 3 µM | TGI (ACHN; time 48 hrs): 17 µM | IC50 (WI-38): > 20 µM | IC50 (MOLT-4; MOLT-4, 48 h): 0.93 µM | TGI (MOLT-4; MOLT-4, time 48 hrs): 7.58 µM | IC50 (HL-60(TB); HL-60, 48 h): 2.34 µM | TGI (HL-60(TB); HL-60, time 48 hrs): 8.58 µM | IC50 (HT-29; HT-29, 48 h): 4.1 µM | TGI (HT-29; HT-29, time 48 hrs): > 22 µM | IC50 (SR; 48 h): 3.07 µM | TGI (SR; time 48 hrs): > 22 µM | IC50 (MDA-MB-435; MDA-MB-435, 48 h): 2.29 µM | TGI (MDA-MB-435; MDA-MB-435, time 48 hrs): 6.33 µM | IC50 (SW-620; SW-620, 48 h): 4.78 µM | TGI (SW-620; SW-620, time 48 hrs): > 22 µM | IC50 (M14; M14, 48 h): 3.03 µM | TGI (M14; M14, time 48 hrs): 12.5 µM | IC50 (MDA-MB-468; MDA-MB-468, 48 h): 1.03 µM | TGI (MDA-MB-468; MDA-MB-468, time 48 hrs): 7.22 µM | IC50 (UO-31; UO-31, 48 h): 3 µM | TGI (UO-31; UO-31, time 48 hrs): > 22 µM | IC50 (SK-OV-3; SK-OV-3, 48 h): 6.43 µM | TGI (SK-OV-3; SK-OV-3, time 48 hrs): > 22 µM | IC50 (SN12C; 48 h): 3.21 µM | TGI (SN12C; time 48 hrs): > 22 µM | IC50 (SK-MEL-2; SK-MEL-2, 48 h): 3.54 µM | TGI (SK-MEL-2; SK-MEL-2, time 48 hrs): 7.57 µM | IC50 (COLO 205; COLO 205, 48 h): 3.01 µM | TGI (COLO 205; COLO 205, time 48 hrs): 9.39 µM | IC50 (CCRF-CEM; 48 h): 1.59 µM | TGI (CCRF-CEM; time 48 hrs): 9.71 µM | IC50 [1]: > 1 µM | IC50 (NCI-H23; NCI-H23, 48 h): 3.69 µM | TGI (NCI-H23; NCI-H23, time 48 hrs): 14.9 µM | IC50 (RPMI-8226; RPMI-8226, 48 h): 1.21 µM | TGI (RPMI-8226; RPMI-8226, time 48 hrs): 11.8 µM | IC50 (PC-3; PC-3, 48 h): 0.97 µM | TGI (PC-3; PC-3, time 48 hrs): 17 µM | IC50 (OVCAR-4; OVCAR-4, 48 h): 2.02 µM | TGI (OVCAR-4; OVCAR-4, time 48 hrs): > 22 µM | IC50 (MCF7; MCF7, 48 h): 1.8 µM | TGI (MCF7; MCF7, time 48 hrs): 10.1 µM | IC50 (NCI-H522; NCI-H522, 48 h): 2.77 µM | TGI (NCI-H522; NCI-H522, time 48 hrs): 9.26 µM | IC50 (CAKI-1; CAKI-1, 48 h): 4.18 µM | TGI (CAKI-1; CAKI-1, time 48 hrs): 19.4 µM | IC50 (HCT-116; HCT-116, 48 h): 1.86 µM | TGI (HCT-116; HCT-116, time 48 hrs): > 22 µM | IC50 (OVCAR-3; OVCAR-3, 48 h): 1.76 µM | TGI (OVCAR-3; OVCAR-3, time 48 hrs): 11.5 µM | IC50 (SK-MEL-5; SK-MEL-5, 48 h): 2.58 µM | TGI (SK-MEL-5; SK-MEL-5, time 48 hrs): 5.45 µM | IC50 (Hs-578T; 48 h): 3.39 µM | TGI (Hs-578T; time 48 hrs): 15.8 µM | IC50 (HCC 2998; HCC 2998, 48 h): 6.1 µM | TGI (HCC 2998; HCC 2998, time 48 hrs): > 22 µM | IC50 (MDA-MB-231; MDA-MB-231, 48 h): 3.07 µM | TGI (MDA-MB-231; MDA-MB-231, time 48 hrs): 7.57 µM | IC50 (Malme-3M; 48 h): 3.3 µM | TGI (Malme-3M; time 48 hrs): 8.95 µM | IC50 (DU-145; DU-145, 48 h): 7.15 µM | TGI (DU-145; DU-145, time 48 hrs): > 22 µM | IC50 (OVCAR-8; OVCAR-8, 48 h): 4.72 µM | TGI (OVCAR-8; OVCAR-8, time 48 hrs): > 22 µM | IC50 (A549; A549, 48 h): 4.34 µM | TGI (A549; A549, time 48 hrs): > 22 µM | IC50 (HCT-15; HCT-15, 48 h): 2.84 µM | TGI (HCT-15; HCT-15, time 48 hrs): > 22 µM

From ChEMBL document CHEMBL5113453, “Design, synthesis, and biological evaluation of a new series of pyrazole derivatives: Discovery of potent and selective JNK3 kinase inhibitors” (Bioorg Med Chem, 2022)
